# Results published in patent US20050036977A1, “Taste-masked resinate and preparation thereof” (priority 2003, published 2005).
# Read-outs that look alike come from different tables or passages of the source.
# Settings: initial risperidone 15 mg/mL, control value = solubility of risperidone
# Protocol: The resin and risperidone were added to either water, citrate-phosphate buffer at pH 5.93 or a 1.7% gelatin solution (Table 1a). The initial concentration of risperidone in the slurries was 15 mg/mL. The control consisted of risperidone in each of the three aqueous media.
# Each slurry was placed into centrifuge tubes, capped and mixed with a Burrell Wrist action shaker model 75 for 24 hours. After 24 hours, the slurry was centrifuged at a relative centrifugal force of 38,724 g for 18 minutes. The supernatant was collected, filtered through a 0.45 μl nylon filter and assayed for risperidone by an isocratic HPLC method. The concentration of drug present in the supernatant represented the amount of unbound or “free” risperidone.
smiles,measurement,setting,value
"Cc1nc2n(c(=O)c1CCN1CCC(c3noc4cc(F)ccc34)CC1)CCCC2 [Risperidone (Control), risperidone]",Concentration of Risperidone in Supernatant after 24 Hours Mixing,1.7% Gelatin,1062.1 µg/mL
same,Concentration of Risperidone in Supernatant after 24 Hours Mixing,Citrate-Phosphate Buffer (pH 5.93),4603.6 µg/mL
same,Concentration of Risperidone in Supernatant after 24 Hours Mixing,Purified Water,85.82 µg/mL
